In patent US6545007B2, “Methods for inhibiting the transmission of HIV using topically applied substituted 6-benzyl-4-oxopyrimidines” (Idenix (Cayman) Limited, priority 2000, dated 2003):
Read-outs that look alike come from different tables or passages of the source.

Experiments:
[1] = tested on: HIV-1 (IIIB strain); format: cell-based; conditions: for EC50: anti-HIV-1 activity; for SI: selectivity index (CC50/EC50)
Procedure: Compounds. Compounds were solubilized in DMSO at 200 mM and then diluted into culture medium.
(§1) Cells and viruses. MT-4, C8166,H9/IIIB and CEM cells were grown at 37° C. in a 5% CO2 atmosphere in RPMI 1640 medium, supplemented with 10% fetal calf serum (FCS), 100 IU/mL penicillin and 100 μg/mL streptomycin. Cell cultures were checked periodically for the absence of mycoplasma contamination with a MycoTect Kit (Gibco). Human immunodeficiency virus type-I (HIV-1, IIIB strain) was obtained from supernatants of persistently infected H9/IIIB cells.
HIV Titration. Titration of HIV was performed in C8166 cells by the standard limiting dilution method (dilution 1:2, four replica wells per dilution) in 96-well plates. The infectious virus titre was determined by light microscope scoring of cytopathicity after 4 days of incubation and the virus titres were expressed as CCID50/mL.
(§2) Anti-HIV Assays. Activity of the compounds against HIV-1 and HIV-2 multiplication in acutely infected cells was based on the inhibition of virus-induced cytopathicity in MT-4 and C8166 cells, respectively. Briefly, 50 μL of culture medium containing 1×10^4 cells were added to each well of flat-bottom microtiter trays containing 50 μl of culture medium with or without various concentrations of the test compounds. Then 20 μL of an HIV suspension containing 100 CCID50 were added. After a 4-day incubation at 37° C., the number of viable cells was determined by the 3-(4,5-dimethylthiazol-[…])-2,5-diphenyltetrazolium bromide (MTT) method. Cytotoxicity of the compounds was evaluated in parallel with their antiviral activity. It was based on the viability of mock-infected cells, as monitored by the MTT method.

[2] = tested on: mock-infected MT-4 cells; test: Cytotoxicity: viability of mock-infected cells by the MTT method; format: cell-based, human
Procedure: as §1, §2

[3] = acutely infected MT-4 cells, MTT

SMILES | EC50 ([1]; HIV-1-infected MT-4 cells) [µM] | SI [1] | CC50 [2] [µM] | EC50 [1, 3] [µM] | CC50 ([2]; MTT) [µM]
Cc1c(Cc2c(Cl)cccc2Cl)nc(SC2CCCCC2)[nH]c1=O [MC 917] | 22 | >9 | > 200 |  | 
CCC(C)Sc1nc(Cc2ccc(F)cc2)c(C)c(=O)[nH]1 (centres unmarked) [MC 919] | 11 | 9.5 | 105 |  | 
CCCCSc1nc(Cc2c(Cl)cccc2Cl)c(C)c(=O)[nH]1 [MC 920] | 1.17 | >171 | > 200 |  | 
Cc1c(Cc2c(F)cccc2F)nc(SCC(C)C)[nH]c1=O [MC 921] | 0.1 | 640 | 64 |  | 
Cc1c(Cc2c(F)cccc2F)nc(SC2CCCC2)[nH]c1=O [MC 922] | 0.08 | >2,500 | > 200 |  | 
Cc1c(Cc2c(F)cccc2F)nc(SC2CCCCC2)[nH]c1=O [MC 923] | 0.09 | >2,222 | > 200 |  | 
CCC(C)Sc1nc(Cc2ccc([N+](=O)[O-])cc2)c(C)c(=O)[nH]1 (centres unmarked) [MC 924] | 2 | >100 | > 200 |  | 
CCC(C)Sc1nc(Cc2cccc([N+](=O)[O-])c2)c(C)c(=O)[nH]1 (centres unmarked) [MC 925] | 0.35 | >571 | > 200 |  | 
CCC(C)Nc1nc(Cc2c(F)cccc2F)cc(=O)[nH]1 (centres unmarked) [MC 945] | 0.13 | >1,540 | > 200 |  | 
CCC(C)Sc1nc(Cc2ccccc2OC)cc(=O)[nH]1 (centres unmarked) [MC 952] | 1.96 | >208 | > 200 |  | 
CCC(C)Sc1nc(Cc2cccc(OC)c2)cc(=O)[nH]1 (centres unmarked) [MC 957] | 1.2 | >166 | > 200 |  | 
CCC(C)Sc1nc(Cc2ccc(C(F)(F)F)cc2)cc(=O)[nH]1 (centres unmarked) [MC 959] | 25 | 8 | 200 |  | 
CCC(C)Sc1nc(Cc2ccc(N)cc2)cc(=O)[nH]1 (centres unmarked) [MC 960] | 23 | >8 | > 200 |  | 
CCC(C)Sc1nc(Cc2ccc(OC)cc2)cc(=O)[nH]1 (centres unmarked) [MC 964] | 14 | 10.5 | 147 |  | 
CCC(c1cc(=O)[nH]c(SC(C)C)n1)c1cccc2ccccc12 (centres unmarked) [MC 969] | 1.5 | 33.3 | 50 |  | 
CC(C)Sc1nc(C(C)c2cccc3ccccc23)cc(=O)[nH]1 (centres unmarked) [MC 971] | 1.1 | 108 | 119 |  | 
CC(c1cc(=O)[nH]c(SC2CCCC2)n1)c1cccc2ccccc12 (centres unmarked) [MC 972] | 0.5 | 186 | 93 |  | 
CCC(c1cc(=O)[nH]c(SC2CCCC2)n1)c1cccc2ccccc12 (centres unmarked) [MC 973] | 3 | 17 | 51 |  | 
CC(c1cc(=O)[nH]c(SC2CCCCC2)n1)c1cccc2ccccc12 (centres unmarked) [MC 974] | 0.14 | 321.4 | 45 |  | 
CCC(c1cc(=O)[nH]c(SC2CCCCC2)n1)c1cccc2ccccc12 (centres unmarked) [MC 975] | 0.18 | 94 | 16.9 |  | 

SMILES | EC50 ([1]; HIV-1-infected MT-4 cells) [µM] | SI [1] | CC50 [2] [µM] | EC50 [1, 3] [µM] | CC50 ([2]; MTT) [µM]
CC(C)Nc1nc(Cc2c(F)cccc2F)cc(=O)[nH]1 [MC 979] | 0.38 | >526 | > 200 |  | 
O=c1cc(Cc2c(F)cccc2F)nc(NC2CC2)[nH]1 [MC 980] | 3.17 | >63 | > 200 |  | 
CC(c1cc(=O)[nH]c(SC2CCCC2)n1)c1c(Cl)cccc1Cl (centres unmarked) [MC 996] | 1 | 78.3 | 78.3 |  | 
CCC(c1cc(=O)[nH]c(SC(C)C)n1)c1c(Cl)cccc1Cl (centres unmarked) [MC 1000] | 0.4 | >500 | > 200 |  | 
CC(C)Sc1nc(C(C)c2c(Cl)cccc2Cl)cc(=O)[nH]1 (centres unmarked) [MC 1001] | 1.2 | 97.5 | 117 |  | 
CCC(c1cc(=O)[nH]c(SC2CCCC2)n1)c1c(Cl)cccc1Cl (centres unmarked) [MC 1002] | 1 | 23.4 | 23.4 |  | 
CCC(c1cc(=O)[nH]c(SC2CCCCC2)n1)c1c(Cl)cccc1Cl (centres unmarked) [MC 1003] | 3.6 | >55.5 | > 200 |  | 
CCC(c1cc(=O)[nH]c(SC(C)C)n1)c1c(F)cccc1F (centres unmarked) [MC 1005] | 0.08 | 875 | 70 |  | 
CCC(c1cc(=O)[nH]c(SC2CCCC2)n1)c1c(F)cccc1F (centres unmarked) [MC 1006] | 0.15 | 1,333 | 200 |  | 
CC(C)Sc1nc(C(C)c2c(F)cccc2F)cc(=O)[nH]1 (centres unmarked) [MC 1007] | 0.05 | 3,340 | 167 |  | 
CC(c1cc(=O)[nH]c(SC2CCCC2)n1)c1c(F)cccc1F (centres unmarked) [MC 1008] | 0.03 | >6,666 | > 200 |  | 
CC(c1cc(=O)[nH]c(SC2CCCCC2)n1)c1c(F)cccc1F (centres unmarked) [MC 1013] | 0.16 | >1,250 | > 200 |  | 
CCC(c1cc(=O)[nH]c(SC2CCCCC2)n1)c1c(F)cccc1F (centres unmarked) [MC 1014] | 0.05 | 2,600 | 130 |  | 
CC(c1cc(=O)[nH]c(SC2CCCCC2)n1)c1c(Cl)cccc1Cl (centres unmarked) [MC 1016] | 2.9 | >69 | > 200 |  | 
O=c1cc(Cc2c(F)cccc2F)nc(NC2CCCC2)[nH]1 [MC 1022] | 0.09 | >2,222 | > 200 |  | 
CCc1c(Cc2c(F)cccc2F)nc(SC(C)C)[nH]c1=O [MC 1037] | 0.2 | 326 | 65 |  | 
CCc1c(Cc2c(F)cccc2F)nc(SC(C)CC)[nH]c1=O (centres unmarked) [MC 1038] | 0.1 | >2,000 | > 200 |  | 
CC(C)Sc1nc(Cc2c(F)cccc2F)c(C(C)C)c(=O)[nH]1 [MC 1039] | 0.4 | >500 | > 200 |  | 
CCC(C)Sc1nc(Cc2cc(F)cc(F)c2)cc(=O)[nH]1 (centres unmarked) [MC 1041] | 1.4 | >143 | > 200 |  | 
COCCNc1nc(Cc2c(F)cccc2F)cc(=O)[nH]1 [MC 1043] | 0.8 | >250 | > 200 |  | 

SMILES | EC50 ([1]; HIV-1-infected MT-4 cells) [µM] | SI [1] | CC50 [2] [µM] | EC50 [1, 3] [µM] | CC50 ([2]; MTT) [µM]
CC(C)CSc1nc(C(C)c2c(F)cccc2F)cc(=O)[nH]1 (centres unmarked) [MC 1044] | 0.05 | >4,000 | > 200 |  | 
CCCCSc1nc(C(C)c2c(F)cccc2F)cc(=O)[nH]1 (centres unmarked) [MC 1045] | 0.07 | 2,857 | > 200 |  | 
CC(c1cc(=O)[nH]c(NC2CCCC2)n1)c1c(F)cccc1F (centres unmarked) [MC 1048] | 0.03 | 2,500 | 75 |  | 
O=c1cc(Cc2c(F)cccc2F)nc(NC2CCCCC2)[nH]1 [MC 1049] | 0.14 | 471 | 66 |  | 
Cc1c(Cc2c(F)cccc2F)nc(NC2CCCC2)[nH]c1=O [MC 1050] | 0.02 | >10,000 | > 200 |  | 
CSc1nc(C(C)c2c(F)cccc2F)c(C)c(=O)[nH]1 (centres unmarked) [MC 1060] | 0.04 | >5,000 | > 200 |  | 
CCCCNc1nc(Cc2c(F)cccc2F)cc(=O)[nH]1 [MC 1077] | 0.1 | 1,000 | 100 |  | 
CCCNc1nc(Cc2c(F)cccc2F)cc(=O)[nH]1 [MC 1078] | 0.11 | 1,818 | 200 |  | 
O=c1cc(Cc2c(F)cccc2F)nc(OC2CCCC2)[nH]1 [MC 1103] | 20 | >10 | > 200 |  | 
Cc1c(Cc2c(F)cccc2F)nc(NCc2ccccc2)[nH]c1=O [MC 1105] | 0.5 | 100 | 50 |  | 
CCC(C)Sc1nc(C(C)c2c(F)cccc2F)c(C)c(=O)[nH]1 (centres unmarked) [MC 1109] | 0.03 | 6,666 | 200 |  | 
CCC(C)Sc1nc(C(C)c2c(F)cccc2F)cc(=O)[nH]1 (centres unmarked) [MC 1110] | 0.03 | >6,666 | > 200 |  | 
Cc1c(Cc2c(F)cccc2F)nc(NC(C)C)[nH]c1=O [MC 1118] | 0.03 | 6,333 | 190 |  | 
CCNc1nc(Cc2c(F)cccc2F)cc(=O)[nH]1 [MC 1119] | 0.8 | >250 | > 200 |  | 
CCC(C)Nc1nc(Cc2c(F)cccc2F)c(C)c(=O)[nH]1 (centres unmarked) [MC 1130] | 0.07 | 2,857 | 200 |  | 
Cc1c(C(C)c2c(F)cccc2F)nc(SC(C)C)[nH]c1=O (centres unmarked) [MC 1137] |  |  |  | 0.007 | 200
CSCSc1nc(Cc2ccccc2)cc(=O)[nH]1 [MC 1140] |  |  |  | 20 | > 200
CSCSc1nc(Cc2c(F)cccc2F)c(C(C)C)c(=O)[nH]1 [MC 1145, 6-(2,6-Difluorophenyhnethyl)-3,4-dihydro-5-(1-methylethyl)-2-(methylthiomethyl) thiopyrimidin-4-(3H)-one] |  |  |  | 0.1 | 200
Cc1c(C(C)c2c(F)cccc2F)nc(SCC(C)C)[nH]c1=O (centres unmarked) [MC 1153] |  |  |  | 0.01 | > 200
